From BigSolDB 2.1

COC(=O)[C@H](c1ccccc1Cl)N1CCc2sccc2C1.O=S(=O)(O)O
solubility (mole fraction)
Conditions	273.15 K	278.15 K	283.15 K	288.15 K	293.15 K	298.15 K	303.15 K	308.15 K
in MTBE	6.2e-05	6.5e-05	7.5e-05	8.6e-05	0.000101	0.00011	0.000122	0.000125
in acetone	0.0188	0.0262	0.0339	0.0436	0.0474	0.0567	0.0672	0.076
in ethyl acetate	0.000278	0.000325	0.000342	0.000401	0.000457	0.000511	0.000543	0.000619
in isopropanol	0.00815	0.0113	0.0132	0.0198	0.0237	0.0305	0.0382	0.0463
in methyl acetate	0.000959	0.00103	0.00112	0.00122	0.00133	0.00151	0.00188	0.00214
in n-butanol	0.0502	0.056	0.0655	0.0686	0.0771	0.08	0.0869	0.0952
in sec-butanol	0.00377	0.00528	0.00678	0.00961	0.0127	0.016	0.0191	0.0238
